Assay results published in patent EP3046573B1, “AMYLIN ANALOGUES” (Zealand Pharma A/S, priority 2013, dated 2015).
Numbered stars: 1 amine (or outer) side, 2 acyl side, 3 side chain; on linkers, the order of the positions; unused ones are H or OH. Bridge positions count the residues as written; N and C are the ends. Square brackets hold non-standard residues; d marks the D form. Peptide text beside a SMILES is read from it. * marks the point of attachment. C20 diacid = O=C(O)CCCCCCCCCCCCCCCCCCC(=O)*; γGlu = O=C(O)[C@H](CCC(=O)[*:2])N[*:1]; NMeI = CC[C@H](C)[C@H](NC)C(=O)O; Sar = CNCC(=O)O

How the values were obtained:
[1] = molecular target: T1, human calcitonin receptor (hCTR2) (Homo sapiens, UniProt P30988); assay: hCTR2 assay: induction of cAMP (AlphaScreen cAMP Assay kit) in COS7 cells expressing hCTR2; assay type: cell-based; settings: cAMP induction in COS7 cells expressing hCTR2; average of a minimum of 3 determinations; read-out: hCTR2 EC50
T1 construct: expressed in transfected cells
T1 sequence (P30988 25-474): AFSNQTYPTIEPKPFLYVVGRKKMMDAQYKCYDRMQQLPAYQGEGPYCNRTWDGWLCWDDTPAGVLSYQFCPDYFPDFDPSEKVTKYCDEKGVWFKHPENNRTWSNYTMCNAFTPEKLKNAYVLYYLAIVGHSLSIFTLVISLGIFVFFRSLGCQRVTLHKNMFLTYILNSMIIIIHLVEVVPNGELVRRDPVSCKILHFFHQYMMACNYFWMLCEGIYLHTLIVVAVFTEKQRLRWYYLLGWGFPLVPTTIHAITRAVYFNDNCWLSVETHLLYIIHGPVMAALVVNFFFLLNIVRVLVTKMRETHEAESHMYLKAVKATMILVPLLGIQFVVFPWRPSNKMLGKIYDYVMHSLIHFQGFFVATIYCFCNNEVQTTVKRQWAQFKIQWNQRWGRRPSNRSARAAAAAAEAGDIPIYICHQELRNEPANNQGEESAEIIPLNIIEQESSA
In short: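 Functional agonism is measured as cAMP accumulation in a COS7 line stably transfected with hCTR2, lacking endogenous RAMPs. Peptides act for 15 min at 37° C with IBMX present, and curves are fitted with a 4-parameter logistic model.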

[2] = molecular target: T2, human amylin receptor 3 (hAMYR3) consisting of hCTR2 co-expressed with human Receptor Activity Modifying Protein 3 (hRAMP3) (Homo sapiens, UniProt O60896+P30988); assay: hAMYR3 assay: induction of cAMP (AlphaScreen cAMP Assay kit) in COS7 cells expressing hAMYR3; assay type: cell-based; settings: cAMP induction in COS7 cells expressing hAMYR3; average of a minimum of 3 determinations; read-out: hAMY R3 EC50
T2 construct: expressed in transfected cells
T2 sequence (P30988 25-474): T1 sequence (P30988 25-474)
T2 sequence (O60896 24-148 partner): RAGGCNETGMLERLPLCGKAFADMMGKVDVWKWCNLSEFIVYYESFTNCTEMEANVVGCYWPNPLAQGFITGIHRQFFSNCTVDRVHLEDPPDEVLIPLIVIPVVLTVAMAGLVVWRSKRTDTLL
In short: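 Stable COS7 clone co-expressing hCTR2 and hRAMP3, stimulated 15 min at 37° C with increasing peptide in Tyrode buffer pH 7.4 with 100 µM IBMX and 0.1% casein. cAMP measured by AlphaScreen after lysis; EC50 and % efficacy versus pramlintide from 4PL fit.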

[3] = Solubility assessment (turbidity absorbance at 325 nm); assay type: physicochemical; settings: stock 2 mg/ml diluted 1:1, ambient temperature (typically 25°C), n=1; for Solubility, Acetate buffer pH 4: 100 mM acetate buffer pH 4.0; for Solubility, Acetate buffer pH 5: 100 mM acetate buffer pH 5.0; for Solubility, Histidine buffer pH 6: 100 mM histidine buffer pH 6.0; for Solubility, Histidine buffer pH 7: 100 mM histidine buffer pH 7.0; for Solubility, Phosphate buffer pH 6: 100 mM phosphate buffer pH 6.0; for Solubility, Phosphate buffer pH 7: 100 mM phosphate buffer pH 7.0; for Solubility, Phosphate buffer pH 7.5: 100 mM phosphate buffer pH7.5
In short: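 Peptide stock (2 mg/ml) in water acidified to pH 2.5 with HCl was diluted 1:1 into 100 mM acetate (pH 4.0, 5.0), histidine (pH 6.0, 7.0) or phosphate (pH 6.0, 7.0, 7.5) buffer. A280 and A325 were read at about 25°C, n=1. A325 ≤ 0.02 meant solubility ≥ 1 mg/ml.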

EC50 [1] [pM]	EC50 [2] [pM]	Solubility, Acetate buffer pH 4 [3]	Solubility, Acetate buffer pH 5 [3]	Solubility, Histidine buffer pH 6 [3]	Solubility, Histidine buffer pH 7 [3]	Solubility, Phosphate buffer pH 6 [3]	Solubility, Phosphate buffer pH 7 [3]	Solubility, Phosphate buffer pH 7.5 [3]	Compound
170	300	SS (SS indicates solubility ≥ 1mg/ml)	SS (SS indicates solubility ≥ 1mg/ml)	SS (SS indicates solubility ≥ 1mg/ml)	SS (SS indicates solubility ≥ 1mg/ml)	SS (SS indicates solubility ≥ 1mg/ml)	SS (SS indicates solubility ≥ 1mg/ml)	SS (SS indicates solubility ≥ 1mg/ml)	CC[C@H](C)[C@@H](C(=O)N[C@@H](CC(C)C)C(=O)N[C@@H](CO)C(=O)N[C@@H](CO)C(=O)N[C@H](C(=O)N[C@@H](CCC(=O)O)C(=O)N[C@H](C(=O)NCC(=O)N[C@@H](CO)C(=O)N[C@@H](CCC(=O)O)C(=O)N[C@H](C(=O)N1CCC[C@H]1C(N)=O)[C@@H](C)O)C(C)C)[C@@H](C)O)N(C)C(=O)[C@H](C)NC(=O)CN(C)C(=O)[C@H](Cc1ccccc1)NC(=O)[C@H](CO)NC(=O)[C@H](CO)NC(=O)[C@H](CO)NC(=O)[C@H](CO)NC(=O)[C@H](CCCNC(=N)N)NC(=O)[C@H](Cc1c[nH]cn1)NC(=O)[C@H](CC(C)C)NC(=O)[C@H](Cc1ccccc1)NC(=O)[C@H](CCC(=O)O)NC(=O)[C@H](C)NC(=O)[C@H](CC(C)C)NC(=O)[C@H](CCCNC(=N)N)NC(=O)[C@H](CCC(=O)O)NC(=O)[C@@H](NC(=O)[C@H](C)NC(=O)[C@@H]1CSSC[C@H](NC(=O)[C@H](CCCNC(=N)N)NC(=O)CC[C@H](NC(=O)CCCCCCCCCCCCCCCCCCC(=O)O)C(=O)O)C(=O)N[C@@H](CC(N)=O)C(=O)N[C@@H]([C@@H](C)O)C(=O)N[C@@H](C)C(=O)N[C@@H]([C@@H](C)O)C(=O)N1)[C@@H](C)O [Compound 119, [19CD]-isoGlu-RC()NTATC()ATERLAEFLHRSSSSF-Gly(Me)-A-Ile(Me)-LSSTEVGSETP-NH2] ({C20 diacid-γGlu}-RCNTATCATERLAEFLHRSSSSF[Sar]A[NMeI]LSSTEVGSETP-NH2; disulfide 2-7)
150	300	SS (SS indicates solubility ≥ 1mg/ml)	SS (SS indicates solubility ≥ 1mg/ml)	II (II indicates solubility ≤ 1 mg/ml)	SS (SS indicates solubility ≥ 1mg/ml)	SS (SS indicates solubility ≥ 1mg/ml)	II (II indicates solubility ≤ 1 mg/ml)	SS (SS indicates solubility ≥ 1mg/ml)	CC[C@H](C)[C@@H](C(=O)N[C@@H](CC(C)C)C(=O)N[C@@H](CO)C(=O)N[C@@H](CO)C(=O)N[C@H](C(=O)N[C@@H](CCC(=O)O)C(=O)N[C@H](C(=O)NCC(=O)N[C@@H](CO)C(=O)N[C@@H](CCC(=O)O)C(=O)N[C@H](C(=O)N1CCC[C@H]1C(N)=O)[C@@H](C)O)C(C)C)[C@@H](C)O)N(C)C(=O)[C@H](C)NC(=O)CN(C)C(=O)[C@H](Cc1ccccc1)NC(=O)[C@H](CO)NC(=O)[C@H](CO)NC(=O)[C@H](CO)NC(=O)[C@H](CO)NC(=O)[C@H](CCCNC(=N)N)NC(=O)[C@H](Cc1c[nH]cn1)NC(=O)[C@H](CC(C)C)NC(=O)[C@H](Cc1ccccc1)NC(=O)[C@H](CCC(=O)O)NC(=O)[C@H](C)NC(=O)[C@H](CC(C)C)NC(=O)[C@H](CCCNC(=N)N)NC(=O)[C@H](CC(C)C)NC(=O)[C@@H](NC(=O)[C@H](C)NC(=O)[C@@H]1CSSC[C@H](NC(=O)[C@H](CCCNC(=N)N)NC(=O)CC[C@H](NC(=O)CCCCCCCCCCCCCCCCCCC(=O)O)C(=O)O)C(=O)N[C@@H](CC(N)=O)C(=O)N[C@@H]([C@@H](C)O)C(=O)N[C@@H](C)C(=O)N[C@@H]([C@@H](C)O)C(=O)N1)[C@@H](C)O [Compound 121, [19CD]-isoGlu-RC()NTATC()ATLRLAEFLHRSSSSF-Gly(Me)-A-Ile(Me)-LSSTEVGSETP-NH2] ({C20 diacid-γGlu}-RCNTATCATLRLAEFLHRSSSSF[Sar]A[NMeI]LSSTEVGSETP-NH2; disulfide 2-7)
110	200	SS (SS indicates solubility ≥ 1mg/ml)	SS (SS indicates solubility ≥ 1mg/ml)	SS (SS indicates solubility ≥ 1mg/ml)	SS (SS indicates solubility ≥ 1mg/ml)	SS (SS indicates solubility ≥ 1mg/ml)	SS (SS indicates solubility ≥ 1mg/ml)	SS (SS indicates solubility ≥ 1mg/ml)	CC[C@H](C)[C@@H](C(=O)N[C@@H](CC(C)C)C(=O)N[C@@H](CO)C(=O)N[C@@H](CO)C(=O)N[C@H](C(=O)N[C@@H](CCC(=O)O)C(=O)N[C@H](C(=O)NCC(=O)N[C@@H](CO)C(=O)N[C@@H](CCC(=O)O)C(=O)N[C@H](C(=O)N1CCC[C@H]1C(N)=O)[C@@H](C)O)C(C)C)[C@@H](C)O)N(C)C(=O)[C@H](C)NC(=O)CN(C)C(=O)[C@H](Cc1ccccc1)NC(=O)[C@H](CO)NC(=O)[C@H](CO)NC(=O)[C@H](CO)NC(=O)[C@H](CO)NC(=O)[C@H](CCCNC(=N)N)NC(=O)[C@H](Cc1c[nH]cn1)NC(=O)[C@H](CC(C)C)NC(=O)[C@H](Cc1ccccc1)NC(=O)[C@H](CCC(=O)O)NC(=O)[C@H](C)NC(=O)[C@H](CC(C)C)NC(=O)[C@H](CCCNC(=N)N)NC(=O)CNC(=O)[C@@H](NC(=O)[C@H](C)NC(=O)[C@@H]1CSSC[C@H](NC(=O)[C@H](CCCNC(=N)N)NC(=O)CC[C@H](NC(=O)CCCCCCCCCCCCCCCCCCC(=O)O)C(=O)O)C(=O)N[C@@H](CC(N)=O)C(=O)N[C@@H]([C@@H](C)O)C(=O)N[C@@H](C)C(=O)N[C@@H]([C@@H](C)O)C(=O)N1)[C@@H](C)O [Compound 122, [19CD]-isoGlu-RC()NTATC()ATGRLAEFLHRSSSSF-Gly(Me)-A-Ile(Me)-LSSTEVGSETP-NH2] ({C20 diacid-γGlu}-RCNTATCATGRLAEFLHRSSSSF[Sar]A[NMeI]LSSTEVGSETP-NH2; disulfide 2-7)
280	290	SS (SS indicates solubility ≥ 1mg/ml)	SS (SS indicates solubility ≥ 1mg/ml)	SS (SS indicates solubility ≥ 1mg/ml)	SS (SS indicates solubility ≥ 1mg/ml)	SS (SS indicates solubility ≥ 1mg/ml)	SS (SS indicates solubility ≥ 1mg/ml)	SS (SS indicates solubility ≥ 1mg/ml)	CC[C@H](C)[C@@H](C(=O)N[C@@H](CC(C)C)C(=O)N[C@@H](CO)C(=O)N[C@@H](CO)C(=O)N[C@H](C(=O)N[C@@H](CCC(=O)O)C(=O)N[C@H](C(=O)NCC(=O)N[C@@H](CO)C(=O)N[C@@H](CCC(=O)O)C(=O)N[C@H](C(=O)N1CCC[C@H]1C(N)=O)[C@@H](C)O)C(C)C)[C@@H](C)O)N(C)C(=O)[C@H](C)NC(=O)CN(C)C(=O)[C@H](Cc1ccccc1)NC(=O)[C@H](CO)NC(=O)[C@H](CO)NC(=O)[C@H](CO)NC(=O)[C@H](CO)NC(=O)[C@H](CCCNC(=N)N)NC(=O)[C@H](Cc1c[nH]cn1)NC(=O)[C@H](CC(C)C)NC(=O)[C@H](Cc1ccccc1)NC(=O)[C@H](CCC(=O)O)NC(=O)[C@H](C)NC(=O)[C@H](CC(C)C)NC(=O)[C@H](CCCNC(=N)N)NC(=O)[C@@H](NC(=O)[C@@H](NC(=O)[C@H](C)NC(=O)[C@@H]1CSSC[C@H](NC(=O)[C@H](CCCNC(=N)N)NC(=O)CC[C@H](NC(=O)CCCCCCCCCCCCCCCCCCC(=O)O)C(=O)O)C(=O)N[C@@H](CC(N)=O)C(=O)N[C@@H]([C@@H](C)O)C(=O)N[C@@H](C)C(=O)N[C@@H]([C@@H](C)O)C(=O)N1)[C@@H](C)O)[C@@H](C)O [Compound 123, [19CD]-isoGlu-RC()NTATC()ATTRLAEFLHRSSSSF-Gly(Me)-A-Ile(Me)-LSSTEVGSETP-NH2] ({C20 diacid-γGlu}-RCNTATCATTRLAEFLHRSSSSF[Sar]A[NMeI]LSSTEVGSETP-NH2; disulfide 2-7)
